Data: PubChem BioAssay AID2060354 (Molecular Pharmacology Branch, DTP, NCI, 2025)
Where “and” joins values, the source holds several entries; their conditions need not be identical. Equal entries are not always repeated.

System: 519858-162-T-J1-PDC spheroid growth inhibition
Assay: Anticancer human tumor 519858-162-T-J1-PDC patient-derived colon adenocarcinoma cell line growth inhibition [TAK]
Conditions: spheroids with HUVEC and MSC; for viability, T/C: stronger effect = lower value
Text: Combinatorial screen of targeted agents with TAK-243 and ipatasertib in multi-cell type tumor spheroids
A high-throughput screen of multi-cell type tumor spheroids was designed to identify active combinations of targeted small molecules and TAK-243 or ipatasertib. Complex spheroids include a stromal component modeled by human endothelial cells (HUVEC) and fibroblasts modeled by human mesenchymal stem cells (MSCs). The concentration ranges selected for each drug and investigational agent were based upon clinically achievable concentrations if the clinical Cmax of the agent was known.
Compounds. The drugs and investigational agents: TAK-243 (785004), ipatasertib (767898), everolimus (733504), selumetinib (741078), bortezomib (756655), trametinib (758246), ixazomib (758254), vemurafenib (761431), dabrafenib (764134), sapanisertib (764658), alpelisib (765974), and copanlisib (816437), were obtained from the National Cancer Institute (NCI) Developmental Therapeutics Program Chemical Repository. The FDA-approved anticancer drug set is available from the NCI Developmental Therapeutics Program. […] The stock solutions were prepared in dimethyl sulfoxide (DMSO, Sigma-Aldrich, St. Louis, MO, cat. D2650) at 800-fold the tested concentration and stored at -70 degrees C prior to their use. All drugs and investigational agents were tested over a range starting from a high concentration at or near the clinical Cmax and decreasing in half-log increments. If the clinical Cmax for an agent had not been determined, the highest concentration tested was 10 microM.
NCI60 Cell Culture. NCI60 cell lines were obtained from the NCI Developmental Therapeutics Program Tumor Repository. For each lot of cells, the Repository performed Applied Biosystems AmpFLSTR Identifiler testing with PCR amplification to confirm consistency with the published Identifier STR profile for each cell line. Cells were kept in continuous culture for no more than 20 passages. The optimal seeding densities for each of the cell lines at each time point assessed were determined prior to performing the concentration response studies. Briefly, the NCI60 human tumor lines were grown as monolayers in RPMI 1640 medium supplemented with 10% FBS and 2 mmol/L L-glutamine.
An additional 2 lines were from the NCI60 cell line panel including melanomas, MALME-3M and SK-MEL-2. Pooled donor human umbilical vein endothelial cells (HUVEC, Lonza, cat. CC-2519) and human mesenchymal stem cells (hMSC, Lonza, cat. PT-2501) were purchased from Lonza (Walkersville, MD).
PDMR cell lines were grown in complete medium (DC medium): Dulbecco's modified Eagle's medium (DMEM)/F12 supplemented with 5% fetal bovine serum (FBS), 2 mM L-glutamine, 100 U/mL penicillin and 100 µg/ml streptomycin, 0.4 µg/ml hydrocortisone, 10 ng/ml epidermal growth factor (EGF) recombinant human protein, 24 µg/mL adenine, and 0.1 mg/mL primocin. During culture from frozen stock vials, PDMR cells were cultured in the same medium containing 10 µM Y-27632 (see Table 3). The PDCs were cultured in complete DMEM/F12 media without 10 microM Y-27632 dihydrochloride for at least two passages prior to the screen. The pooled donor HUVEC and hMSC were cultured in endothelial cell growth medium 2 (PromoCell, Heidelberg, Germany, cat. C-22011) and mesenchymal stem cell growth medium 2 (PromoCell, cat. C-28009), respectively. For all experiments, HUVEC and hMSC were used at passages </=5.
For the pre-screen, cell seeding densities were determined from a titration spanning the range from 5,000 to 313 cells per well. The mct-spheroids including 60% malignant cells, 25% HUVEC and 15% MSC dispensed as a mixture into U-bottom Ultra-Low Attachment 384-well plates (Corning, NY)
High-throughput Drug Combination Screening.
Prior to their inoculation into 384-well plates, malignant cells, HUVEC, and hMSC were removed from T flasks using TrypLE express (Thermo Fisher Scientific, cat. 12605036) and harvested by centrifugation for 5 min at 233 x g. […]

[1] = curve of first compound, second compound 0.3 µM
[2] = curve of first compound, second compound 0.949 µM
[3] = curve of first compound, second compound 3 µM
[4] = curve of first compound, second compound 9.49 µM
[5] = curve of first compound, second compound 30 µM
[6] = second compound 0.3 µM, first compound 0.0316 µM
[7] = second compound 0.3 µM, first compound 0.1 µM
[8] = second compound 0.949 µM, first compound 0.0316 µM
[9] = second compound 0.949 µM, first compound 0.1 µM
[10] = second compound 3 µM, first compound 0.0316 µM
[11] = second compound 3 µM, first compound 0.1 µM
[12] = second compound 9.49 µM, first compound 0.0316 µM
[13] = second compound 9.49 µM, first compound 0.1 µM
[14] = second compound 30 µM, first compound 0.0316 µM
[15] = second compound 30 µM, first compound 0.1 µM
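Note: spheroids exposed to drugs for 7 days.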

## COC1CC2CCC(C)C(O)(O2)C(=O)C(=O)N2CCCCC2C(=O)OC(C(C)CC2CCC(OCCO)C(OC)C2)CC(=O)C(C)C=C(C)C(O)C(OC)C(=O)C(C)CC(C)C=CC=CC=C1C (stereo not given) + CC(C)NCC(C(=O)N1CCN(c2ncnc3c2C(C)CC3O)CC1)c1ccc(Cl)cc1
[1]
  IC50: > 100 nM
[2]
  IC50: > 100 nM
[3]
  IC50: > 100 nM
[4]
  IC50: > 100 nM
[5]
  IC50: > 100 nM
Second compound 0.3 µM, first compound 0.000316 µM
  viability, T/C: 102%
Second compound 0.3 µM, first compound 0.001 µM
  viability, T/C: 91.5%
Second compound 0.3 µM, first compound 0.00316 µM
  viability, T/C: 89.6%
Second compound 0.3 µM, first compound 0.01 µM
  viability, T/C: 90%
[6]
  viability, T/C: 104%
[7]
  viability, T/C: 84.6%
Second compound 0.949 µM, first compound 0.000316 µM
  viability, T/C: 83.6%
Second compound 0.949 µM, first compound 0.001 µM
  viability, T/C: 87.1%
Second compound 0.949 µM, first compound 0.00316 µM
  viability, T/C: 65.8%
Second compound 0.949 µM, first compound 0.01 µM
  viability, T/C: 85.7%
[8]
  viability, T/C: 85.2%
[9]
  viability, T/C: 71.6%
Second compound 3 µM, first compound 0.000316 µM
  viability, T/C: 99.2%
Second compound 3 µM, first compound 0.001 µM
  viability, T/C: 68.7%
Second compound 3 µM, first compound 0.00316 µM
  viability, T/C: 85.3%
Second compound 3 µM, first compound 0.01 µM
  viability, T/C: 93.4%
[10]
  viability, T/C: 85.6%
[11]
  viability, T/C: 94.1%
Second compound 9.49 µM, first compound 0.000316 µM
  viability, T/C: 98.9%
Second compound 9.49 µM, first compound 0.001 µM
  viability, T/C: 84.6%
Second compound 9.49 µM, first compound 0.00316 µM
  viability, T/C: 75.6%
Second compound 9.49 µM, first compound 0.01 µM
  viability, T/C: 98%
[12]
  viability, T/C: 85.8%
[13]
  viability, T/C: 73.8%
Second compound 30 µM, first compound 0.000316 µM
  viability, T/C: 90.2%
Second compound 30 µM, first compound 0.001 µM
  viability, T/C: 96.8%
Second compound 30 µM, first compound 0.00316 µM
  viability, T/C: 82.3%
Second compound 30 µM, first compound 0.01 µM
  viability, T/C: 96.8%
[14]
  viability, T/C: 97.3%
[15]
  viability, T/C: 72.6%

## Cc1nc(NC(=O)N2CCCC2C(N)=O)sc1-c1ccnc(C(C)(C)C(F)(F)F)c1 (stereo not given) + CC(C)NCC(C(=O)N1CCN(c2ncnc3c2C(C)CC3O)CC1)c1ccc(Cl)cc1
[1]
  IC50: > 10000 nM
[2]
  IC50: > 10000 nM
[3]
  IC50: > 10000 nM
[4]
  IC50: > 10000 nM
[5]
  IC50: > 10000 nM
[6]
  viability, T/C: 110%
[7]
  viability, T/C: 88.2%
Second compound 0.3 µM, first compound 0.316 µM
  viability, T/C: 81%
Second compound 0.3 µM, first compound 1 µM
  viability, T/C: 81.7%
Second compound 0.3 µM, first compound 3.16 µM
  viability, T/C: 68.5%
Second compound 0.3 µM, first compound 10 µM
  viability, T/C: 52.8%
[8]
  viability, T/C: 85.3%
[9]
  viability, T/C: 94.8%
Second compound 0.949 µM, first compound 0.316 µM
  viability, T/C: 104%
Second compound 0.949 µM, first compound 1 µM
  viability, T/C: 79.9%
Second compound 0.949 µM, first compound 3.16 µM
  viability, T/C: 86.9%
Second compound 0.949 µM, first compound 10 µM
  viability, T/C: 66.2%
[10]
  viability, T/C: 80%
[11]
  viability, T/C: 77.5%
Second compound 3 µM, first compound 0.316 µM
  viability, T/C: 76.9%
Second compound 3 µM, first compound 1 µM
  viability, T/C: 75.1%
Second compound 3 µM, first compound 3.16 µM
  viability, T/C: 80.5%
Second compound 3 µM, first compound 10 µM
  viability, T/C: 65.7%
[12]
  viability, T/C: 85.6%
[13]
  viability, T/C: 74.2%
Second compound 9.49 µM, first compound 0.316 µM
  viability, T/C: 81.4%
Second compound 9.49 µM, first compound 1 µM
  viability, T/C: 74.4%
Second compound 9.49 µM, first compound 3.16 µM
  viability, T/C: 71.2%
Second compound 9.49 µM, first compound 10 µM
  viability, T/C: 62.7%
[14]
  viability, T/C: 94.6%
[15]
  viability, T/C: 82%
Second compound 30 µM, first compound 0.316 µM
  viability, T/C: 91.5%
Second compound 30 µM, first compound 1 µM
  viability, T/C: 80.2%
Second compound 30 µM, first compound 3.16 µM
  viability, T/C: 72.4%
Second compound 30 µM, first compound 10 µM
  viability, T/C: 72.2%

## CC(C)NCC(C(=O)N1CCN(c2ncnc3c2C(C)CC3O)CC1)c1ccc(Cl)cc1 (stereo not given)
Compound 3 µM
  viability, T/C: 87% [middle of 10 runs]
Compound 30 µM
  viability, T/C: 86.8% [middle of 10 runs]
Compound alone, run of 02/28/2020
  IC50: > 30000 nM

## Cn1cnc2c(F)c(Nc3ccc(Br)cc3Cl)c(C(=O)NOCCO)cc21
Compound 0.00949 µM
  viability, T/C: 89.7% and 85.4%
Compound 0.03 µM
  viability, T/C: 76.2% and 71.8%
Compound 0.0949 µM
  viability, T/C: 45.6% and 51.8%
Compound 0.3 µM
  viability, T/C: 32.3% and 33.5%
Compound 0.949 µM
  viability, T/C: 20.3% and 21.6%
Compound 3 µM
  viability, T/C: 17.2% and 18.4%
Curve of compound
  IC50: 89.6 nM and 106 nM
